In brackets after ≈: the same amount, converted by molar mass. Like-named read-outs stand apart in the source and are kept apart here.
Key:
[1] = tested on: HIV-2; assay: In-vitro anti HIV test, HIV-2, thymidine kinase-deficient T-lymphocyte strain CEM/TK^-; format: cell-based, HIV-2 in human T lymphocytes (CEM/TK^-); conditions: Human immunodeficiency virus 2, CEM-TK(-), read-out: Antiviral activity EC50 CEM/TK^- HIV-2
Protocol: (§1) In-vitro HIV tests were carried out with the dinucleoside α-hydroxymethylarylphosphonates 1-3. As a test system human T lymphocytes (CEM/O) were used. The compounds were additionally tested in a thymidine kinase-deficient T-lymphocyte strain (CEM/TK^-). The CEM/O cells were infected both with HIV-1 and with HIV-2. Before the tests, it was ensured that the compounds to be tested were free of free nucleoside (max. 0.5% HPLC) .

[2] = Toxicity (cytotoxic action) in human T lymphocytes; format: cell-based; conditions: cem t lymphocytes
Protocol: as §1

[3] = tested on: HIV-1; assay: In-vitro anti HIV test, HIV-1, human T lymphocytes CEM/O; format: cell-based, HIV-1 in human T lymphocytes (CEM/O); conditions: Human immunodeficiency virus 1, T-lymphocyte, read-out: Antiviral activity EC50 CEM/O HIV-1
Protocol: as §1

[4] = tested on: HIV-2; assay: In-vitro anti HIV test, HIV-2, human T lymphocytes CEM/O; format: cell-based, HIV-2 in human T lymphocytes (CEM/O); conditions: Human immunodeficiency virus 2, T-lymphocyte, read-out: Antiviral activity EC50 CEM/O HIV-2
Protocol: as §1

Cc1cn([C@H]2CC[C@@H](COP(=O)(OC[C@@H]3CC[C@H](n4cc(C)c(=O)[nH]c4=O)O3)C(O)c3c(Cl)cccc3Cl)O2)c(=O)[nH]c1=O (some centres unmarked) [Compound 1f, bis(5'-O-2',3'-dideoxythymidine) hydroxy(2,6-dichlorophenyl)methylphosphonate]
EC50 [1]: > 20 µg/mL
CC50 ([2]; read-out: Toxicity CC50): > 20 µg/mL
EC50 [3]: 1.4 ± 0.85 µg/mL (≈ 2.08 µM)
EC50 [4]: 2 µg/mL (≈ 2.97 µM)

Cc1ccc(C(O)P(=O)(OC[C@@H]2CC[C@H](n3cc(C)c(=O)[nH]c3=O)O2)OC[C@@H]2CC[C@H](n3cc(C)c(=O)[nH]c3=O)O2)cc1 (some centres unmarked) [Compound 1c, bis(5'-O-2',3'-dideoxythymidine) hydroxy(4-methylphenyl)methylphosphonate]
EC50 [1]: > 100 µg/mL
CC50 ([2]; read-out: Toxicity CC50): > 100 µg/mL
EC50 ([3]; HIV-1, CEM/O cells): 3.25 ± 1.06 µg/mL (≈ 5.25 µM)
EC50 ([4]; HIV-2, CEM/O cells): 10 µg/mL (≈ 16.2 µM)

Cc1cn([C@H]2C=C[C@@H](COP(=O)(OC[C@@H]3C=C[C@H](n4cc(C)c(=O)[nH]c4=O)O3)C(O)c3ccccc3)O2)c(=O)[nH]c1=O (some centres unmarked) [Compound 2d, bis(5'-O-2',3'-dideoxy-2',3'-didehydrothymidine)hydroxy(phenyl)methylphosphonate]
EC50 [1]: > 100 µg/mL
CC50 ([2]; read-out: Toxicity CC50): > 100 µg/mL
EC50 ([3]; HIV-1, CEM/O cells): 0.16 µg/mL (≈ 0.266 µM)
EC50 ([4]; HIV-2, CEM/O cells): 0.19 ± 0.19 µg/mL (≈ 0.316 µM)

Cc1cn([C@H]2C=C[C@@H](COP(=O)(OC[C@@H]3C=C[C@H](n4cc(C)c(=O)[nH]c4=O)O3)C(O)c3ccc(Cl)cc3)O2)c(=O)[nH]c1=O (some centres unmarked) [Compound 2e, bis(5'-O-2',3'-dideoxy-2',3'-didehydrothymidine)hydroxy(4-chlorophenyl)methylphosphonate]
EC50 [1]: > 100 µg/mL
CC50 ([2]; read-out: Toxicity CC50): > 100 µg/mL
EC50 ([3]; HIV-1, CEM/O cells): 0.1 ± 0.05 µg/mL (≈ 0.157 µM)
EC50 ([4]; HIV-2, CEM/O cells): 0.12 ± 0.06 µg/mL (≈ 0.189 µM)

Cc1cn([C@H]2C=C[C@@H](COP(=O)(OC[C@@H]3C=C[C@H](n4cc(C)c(=O)[nH]c4=O)O3)C(O)c3ccc(C#N)cc3)O2)c(=O)[nH]c1=O (some centres unmarked) [Compound 2g, bis(5'-O-2',3'-dideoxy-2',3'-didehydrothymidine)hydroxy(4-cyanophenyl)methylphosphonate]
EC50 [1]: > 100 µg/mL
CC50 ([2]; read-out: Toxicity CC50): > 100 µg/mL
EC50 ([3]; HIV-1, CEM/O cells): 0.091 ± 0.065 µg/mL (≈ 0.145 µM)
EC50 ([4]; HIV-2, CEM/O cells): 0.33 ± 0.24 µg/mL (≈ 0.528 µM)

Cc1cn([C@H]2C=C[C@@H](COP(=O)(OC[C@@H]3C=C[C@H](n4cc(C)c(=O)[nH]c4=O)O3)C(O)c3ccc([N+](=O)[O-])cc3[N+](=O)[O-])O2)c(=O)[nH]c1=O (some centres unmarked) [Compound 2j, bis(5'-O-2',3'-dideoxy-2',3'-didehydrothymidine)hydroxy(2,4-dinitrophenyl)methylphosphonate]
EC50 [1]: > 100 µg/mL
CC50 [2]: > 100 µg/mL
EC50 ([3]; HIV-1, CEM/O cells): 0.16 µg/mL (≈ 0.232 µM)
EC50 ([4]; HIV-2, CEM/O cells): 0.33 ± 0.24 µg/mL (≈ 0.478 µM)

COc1ccc(C(O)P(=O)(OC[C@@H]2C=C[C@H](n3cc(C)c(=O)[nH]c3=O)O2)OC[C@@H]2C=C[C@H](n3cc(C)c(=O)[nH]c3=O)O2)cc1 (some centres unmarked) [Compound 2b, bis(5'-O-2',3'-dideoxy-2',3'-didehydrothymidine)hydroxy(4-methoxyphenyl)methylphosphonate]
EC50 [1]: > 100 µg/mL
CC50 ([2]; read-out: Toxicity CC50): > 20 µg/mL
EC50 ([3]; HIV-1, CEM/O cells): 0.1 ± 0.065 µg/mL (≈ 0.159 µM)
EC50 ([4]; HIV-2, CEM/O cells): 0.12 ± 0.06 µg/mL (≈ 0.19 µM)

Cc1cn([C@H]2CC[C@@H](COP(=O)(OC[C@@H]3CC[C@H](n4cc(C)c(=O)[nH]c4=O)O3)C(O)c3ccc(N(C)C)cc3)O2)c(=O)[nH]c1=O (some centres unmarked) [Compound 1a, bis(5'-O-2',3'-dideoxythymidine) hydroxy(4-dimethylaminophenyl)methylphosphonate]
EC50 [1]: > 100 µg/mL
CC50 ([2]; read-out: Toxicity CC50): > 100 µg/mL
EC50 ([3]; HIV-1, CEM/O cells): 3.25 ± 1.06 µg/mL (≈ 5.02 µM)
EC50 ([4]; HIV-2, CEM/O cells): 7 ± 4.24 µg/mL (≈ 10.8 µM)

COc1ccc(C(O)P(=O)(OC[C@@H]2CC[C@H](n3cc(C)c(=O)[nH]c3=O)O2)OC[C@@H]2CC[C@H](n3cc(C)c(=O)[nH]c3=O)O2)cc1 (some centres unmarked) [Compound 1b, bis(5'-O-2',3'-dideoxythymidine) hydroxy(4-methoxyphenyl)methylphosphonate]
EC50 [1]: > 20 µg/mL
CC50 ([2]; read-out: Toxicity CC50): > 20 µg/mL
EC50 ([3]; HIV-1, CEM/O cells): 0.5 µg/mL (≈ 0.788 µM)
EC50 ([4]; HIV-2, CEM/O cells): 0.55 ± 0.07 µg/mL (≈ 0.867 µM)

Cc1cn([C@H]2C=C[C@@H](COP(=O)(OC[C@@H]3C=C[C@H](n4cc(C)c(=O)[nH]c4=O)O3)C(O)c3c(Cl)cccc3Cl)O2)c(=O)[nH]c1=O (some centres unmarked) [Compound 2f, bis(5'-O-2',3'-dideoxy-2',3'-didehydrothymidine)hydroxy(2,6-dichlorophenyl)methylphosphonate]
EC50 [1]: > 20 µg/mL
CC50 ([2]; read-out: Toxicity CC50): > 100 µg/mL
EC50 ([3]; HIV-1, CEM/O cells): 0.056 ± 0.034 µg/mL (≈ 0.0837 µM)
EC50 ([4]; HIV-2, CEM/O cells): 0.12 ± 0.06 µg/mL (≈ 0.179 µM)

Cc1cn([C@H]2CC[C@@H](COP(=O)(OC[C@@H]3CC[C@H](n4cc(C)c(=O)[nH]c4=O)O3)C(O)c3ccc([N+](=O)[O-])cc3)O2)c(=O)[nH]c1=O (some centres unmarked) [Compound 1h, bis(5'-O-2',3'-dideoxythymidine) hydroxy(4-nitrophenyl)methylphosphonate]
EC50 [1]: > 100 µg/mL
CC50 ([2]; read-out: Toxicity CC50): > 100 µg/mL
EC50 ([3]; HIV-1, CEM/O cells): 2.25 ± 0.35 µg/mL (≈ 3.46 µM)
EC50 ([4]; HIV-2, CEM/O cells): 3 ± 1.41 µg/mL (≈ 4.62 µM)

Cc1cn([C@H]2CC[C@@H](COP(=O)(OC[C@@H]3CC[C@H](n4cc(C)c(=O)[nH]c4=O)O3)C(O)c3ccc([N+](=O)[O-])cc3[N+](=O)[O-])O2)c(=O)[nH]c1=O (some centres unmarked) [Compound 1j, bis(5'-O-2',3'-dideoxythymidine) hydroxy(2,4-dinitrophenyl)methylphosphonate]
EC50 [1]: > 100 µg/mL
CC50 [2]: > 100 µg/mL
EC50 ([3]; HIV-1, CEM/O cells): 2 µg/mL (≈ 2.88 µM)
EC50 ([4]; HIV-2, CEM/O cells): 3.5 ± 0.71 µg/mL (≈ 5.04 µM)

Cc1cn([C@H]2CC[C@@H](COP(=O)(OC[C@@H]3CC[C@H](n4cc(C)c(=O)[nH]c4=O)O3)C(O)c3ccccc3)O2)c(=O)[nH]c1=O (some centres unmarked) [Compound 1d, bis(5'-O-2',3'-dideoxythymidine) hydroxy(phenyl)methylphosphonate]
EC50 [1]: > 100 µg/mL
CC50 ([2]; read-out: Toxicity CC50): > 100 µg/mL
EC50 ([3]; HIV-1, CEM/O cells): 2.93 ± 1.85 µg/mL (≈ 4.85 µM)
EC50 ([4]; HIV-2, CEM/O cells): 13.3 ± 2.9 µg/mL (≈ 22 µM)

Cc1cn([C@H]2CC[C@@H](COP(=O)(OC[C@@H]3CC[C@H](n4cc(C)c(=O)[nH]c4=O)O3)C(O)c3ccc(Cl)cc3)O2)c(=O)[nH]c1=O (some centres unmarked) [Compound 1e, bis(5'-O-2',3'-dideoxythymidine) hydroxy(4-chlorophenyl)methylphosphonate]
EC50 [1]: > 100 µg/mL
CC50 ([2]; read-out: Toxicity CC50): > 100 µg/mL
EC50 ([3]; HIV-1, CEM/O cells): 4 µg/mL (≈ 6.26 µM)
EC50 ([4]; HIV-2, CEM/O cells): 4 µg/mL (≈ 6.26 µM)

Cc1cn([C@H]2CC[C@@H](COP(=O)(OC[C@@H]3CC[C@H](n4cc(C)c(=O)[nH]c4=O)O3)C(O)c3ccc(C#N)cc3)O2)c(=O)[nH]c1=O (some centres unmarked) [Compound 1g, bis(5'-O-2',3'-dideoxythymidine) hydroxy(4-cyanophenyl)methylphosphonate]
EC50 [1]: > 100 µg/mL
CC50 ([2]; read-out: Toxicity CC50): > 100 µg/mL
EC50 ([3]; HIV-1, CEM/O cells): 3.93 ± 3.1 µg/mL (≈ 6.24 µM)
EC50 ([4]; HIV-2, CEM/O cells): 7.7 ± 4.6 µg/mL (≈ 12.2 µM)

Cc1cn([C@H]2C=C[C@@H](COP(=O)(OC[C@@H]3C=C[C@H](n4cc(C)c(=O)[nH]c4=O)O3)C(O)c3ccc([N+](=O)[O-])cc3)O2)c(=O)[nH]c1=O (some centres unmarked) [Compound 2h, bis(5'-O-2',3'-dideoxy-2',3'-didehydrothymidine)hydroxy(4-nitrophenyl)methylphosphonate]
EC50 [1]: > 100 µg/mL
CC50 ([2]; read-out: Toxicity CC50): > 100 µg/mL
EC50 ([3]; HIV-1, CEM/O cells): 0.066 ± 0.048 µg/mL (≈ 0.102 µM)
EC50 ([4]; HIV-2, CEM/O cells): 0.12 ± 0.06 µg/mL (≈ 0.186 µM)

Cc1ccc(C(O)P(=O)(OC[C@@H]2C=C[C@H](n3cc(C)c(=O)[nH]c3=O)O2)OC[C@@H]2C=C[C@H](n3cc(C)c(=O)[nH]c3=O)O2)cc1 (some centres unmarked) [Compound 2c, bis(5'-O-2',3'-dideoxy-2',3'-didehydrothymidine)hydroxy(4-methylphenyl)methylphosphonate]
EC50 [1]: > 100 µg/mL
CC50 ([2]; read-out: Toxicity CC50): > 20 µg/mL
EC50 ([3]; HIV-1, CEM/O cells): 0.12 ± 0.064 µg/mL (≈ 0.195 µM)
EC50 ([4]; HIV-2, CEM/O cells): 0.33 ± 0.24 µg/mL (≈ 0.537 µM)
